Each structure is given as a SMILES string.

For the test, the target named is T1, human liver FBPase (Homo sapiens, UniProt P09467).
T1 construct: made in house; host or cells: E. coli
T1 sequence (P09467 2-338 limits assumed): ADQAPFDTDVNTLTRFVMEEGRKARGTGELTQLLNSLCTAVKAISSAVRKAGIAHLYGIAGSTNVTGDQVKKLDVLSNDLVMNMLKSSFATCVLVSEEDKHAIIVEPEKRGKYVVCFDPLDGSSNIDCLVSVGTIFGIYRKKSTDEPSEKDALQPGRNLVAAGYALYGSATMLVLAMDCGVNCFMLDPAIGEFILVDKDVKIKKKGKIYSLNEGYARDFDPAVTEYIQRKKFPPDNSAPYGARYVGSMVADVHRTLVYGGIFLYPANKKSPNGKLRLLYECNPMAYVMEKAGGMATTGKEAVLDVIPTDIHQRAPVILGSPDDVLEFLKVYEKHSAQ
Kind of test: FBPase assay: inorganic phosphate release (malachite green). The test is classed as biochemical. The settings on record: recombinant human liver FBPase, 50 μM fructose-1,6-bisphosphate, read-out at 620 nm. How it is done:
The following tests were carried out for evaluating the inhibitory activity of the compounds of the present invention against human liver FBPase (Swissprot Data base reference P09467, entry F16P_HUMAN).
Human liver FBPase cDNA (NM_000507) was purchased from Origene Technologies, Inc, subcloned in a vector for expression in E. Coli., and sequenced. Recombinant human liver FBPase (hlFBPase) was purified according to the following protocol that uses heat denaturation similarly to that described by El-Maghrabi et. al. [El-Maghrabi, M. R. et al. “Isolation of a human liver fructose-1,6-bisphosphatase cDNA and expression of the protein in Escherichia coli.” J Biol Chem 268:9466-9472, 1993.]. Briefly, E. coli cells, transiently expressing very high levels of soluble and active human liver FBPase, were suspended in 20 mM Tris-HCl pH 7.5, 1 mM EDTA, 1 mM DTT and were lysed by French press. The soluble extract was heat denatured at 65° C. for 5 min, and insoluble, denatured proteins were removed by centrifugation. The extract was then applied to a BioRad Macro-Prep High Q column equilibrated with 20 mM Tris-HCl pH 7.5, 1 mM EDTA, 1 mM DTT and the flow-through (containing FBPase activity) was collected and applied to a BioRad Macro-Prep HS column equilibrated with 20 mM HEPES pH 7.2, 1 mM DTT. A gradient of increasing NaCl concentration was then applied to the HS column and fractions were collected. Fractions containing active FBPase were pooled and further purified by size exclusion chromatography on a Sephacryl S200 column equilibrated in 20 mM Tris-HCl pH 7.5, 150 mM NaCl, 1 mM EDTA, 1 mM DTT. Purity of the enzyme preparation was >90% as assessed by Mass spectrometry.
Recombinant human liver FBPase (hlFBPase) activity was assayed through measuring the inorganic phosphate release that results from the hydrolysis of Fructose-1,6-bisphosphate by the enzyme. As described by Baykov A. A. et al. in [Baykov A. A et al., “Malachite Green procedure for orthophosphate determination and its use in alkaline phosphatase-based enzyme immunoassays”. Anal. Biochem., 171:266-270, 1988], inorganic phosphate can be readily quantified by spectrophotometry at 620 nm after complexation with ammonium molybdate/malachite green reagent. Enzymatic reaction was carried out with modifications of the procedure described by Wright S. W. et al. [Wright S. W. et al., “Anilinoquinazoline inhibitors of Fructose-1,6-bisphosphatase bind to a novel allosteric site: synthesis, in vitro characterization, and X-ray crystallography”. J. Med. Chem. 45:3865-3877, 2002]. Specifically, the reaction was carried out in 96 well plates in a final volume of 100 μl in the presence or in the absence of allosteric inhibitors. Reaction was started adding 25 ng of hlFBPase to the reaction mixture containing 50 mM HEPES-KOH buffer pH 7.2, 2 mM MgCl2, 2 mM EDTA, 1 mM DTT, 50 μM fructose-1,6-bisphosphate and 1% DMSO. After 50 minutes incubation at room temperature, the phosphate released was allowed to form a colored complex for 10 min by adding 150 μl of ammonium molybdate/malachite green reagent containing 0.03% malachite green, 0.2% ammonium molybdate, 0.05% Triton X-100 and 0.7 M H2SO4 in water that was stirred for 30 min at room temperature and filtered through 0.2 μm filter. Under these conditions, the assay was linear with time and able to detect FBPase inhibition after spectrophotometric read-out at 620 nm.
In the case of `Cc1ccc2sc(S(=O)(=O)NC(=O)Nc3ncc(Br)s3)cc2c1` [Example 1, N-[(5-Bromo-1,3-thiazol-2-yl)carbamoyl]-5-methyl-1-benzothiophene-2-sulfonamide], the IC50 was 89 nM.
With `O=C(Nc1ncc(Br)s1)NS(=O)(=O)c1cc2ccccc2s1` [Example 2, N-[(5-Bromo-1,3-thiazol-2-yl)carbamoyl]-1-benzothiophene-2-sulfonamide] the figure was 434 nM.
With `Cc1c(S(=O)(=O)NC(=O)Nc2ncc(Br)s2)sc2ccc(F)cc12` [Example 3, N-[(5-Bromo-1,3-thiazol-2-yl)carbamoyl]-5-fluoro-3-methyl-1-benzothiophene-2-sulfonamide] the figure was 2730 nM.
Under `O=C(Nc1ncc(Br)s1)NS(=O)(=O)c1csc2ccccc12` [Example 4, N-[(5-Bromo-1,3-thiazol-2-yl)carbamoyl]-1-benzothiophene-3-sulfonamide] stands 212 nM; under `Cc1c(S(=O)(=O)NC(=O)Nc2ncc(Br)s2)sc2ccc(Br)cc12` [Example 5, 5-Bromo-N-[(5-bromo-1,3-thiazol-2-yl)carbamoyl]-3-methyl-1-benzothiophene-2-sulfonamide], 1470 nM.
In the case of `O=C(Nc1ncc(Br)s1)NS(=O)(=O)c1cc2c(s1)CCOC2` [Example 6, N-[(5-Bromo-1,3-thiazol-2-yl)carbamoyl]-6,7-dihydro-4H-thieno[3,2-c]pyran-2-sulfonamide], the IC50 amounted to 528 nM.
`COc1ccc2scc(S(=O)(=O)NC(=O)Nc3ncc(Br)s3)c2c1` [Example 7, N-[(5-Bromo-1,3-thiazol-2-yl)carbamoyl]-5-methoxy-1-benzothiophene-3-sulfonamide]: the IC50 was 122 nM.
With `Cn1c(S(=O)(=O)NC(=O)Nc2ncc(Br)s2)cc2ccccc21` [Example 8, N-[(5-Bromo-1,3-thiazol-2-yl)carbamoyl]-1-methyl-1H-indole-2-sulfonamide] the figure was 1100 nM; with `COc1ccc2cc(S(=O)(=O)NC(=O)Nc3ncc(Br)s3)sc2c1` [Example 9, N-[(5-Bromo-1,3-thiazol-2-yl)carbamoyl]-6-methoxy-1-benzothiophene-2-sulfonamide], 88 nM.
With `COC(=O)c1ccc2scc(S(=O)(=O)NC(=O)Nc3ncc(Br)s3)c2c1` [Example 10, Methyl-3-({[(5-bromo-1,3-thiazol-2-yl)carbamoyl]amino}sulfonyl)-1-benzothiophene-5-carboxylate] the figure was 446 nM; with `Cc1ccc2scc(S(=O)(=O)NC(=O)Nc3ncc(Br)s3)c2c1` [Example 11, N-[(5-Bromo-1,3-thiazol-2-yl)carbamoyl]-5-methyl-1-benzothiophene-3-sulfonamide], 624 nM.
With `O=C(Nc1ncc(Br)s1)NS(=O)(=O)c1csc2ccc(Cl)cc12` [Example 12, N-[(5-Bromo-1,3-thiazol-2-yl)carbamoyl]-5-chloro-1-benzothiophene-3-sulfonamide] the figure was 370 nM.
Consider `O=C(Nc1ncc(Br)s1)NS(=O)(=O)c1cc2cc(Cl)ccc2s1` [Example 13, N-[(5-Bromo-1,3-thiazol-2-yl)carbamoyl]-5-chloro-1-benzothiophene-2-sulfonamide], for which the IC50 turned out to be 111 nM.
Under `Cc1cccc2cc(S(=O)(=O)NC(=O)Nc3ncc(Br)s3)sc12` [Example 14, N-[(5-Bromo-1,3-thiazol-2-yl)carbamoyl]-7-methyl-1-benzothiophene-2-sulfonamide] stands 161 nM; under `COc1ccc2cc(S(=O)(=O)NC(=O)Nc3ncc(Br)s3)sc2c1Br` [Example 15, 7-Bromo-N-[(5-bromo-1,3-thiazol-2-yl)carbamoyl]-6-methoxy-1-benzothiophene-2-sulfonamide], 141 nM.
With `Cc1noc(C)c1-c1ccc2sc(S(=O)(=O)NC(=O)Nc3ncc(Br)s3)cc2c1` [Example 16, N-[(5-bromo-1,3-thiazol-2-yl)carbamoyl]-5-(3,5-dimethylisoxazol-4-yl)-1-benzothiophene-2-sulfonamide] the figure was 830 nM; with `COc1ccc2sc(S(=O)(=O)NC(=O)Nc3ncc(Br)s3)cc2c1` [Example 17, N-[(5-Bromo-1,3-thiazol-2-yl)carbamoyl]-5-methoxy-1-benzothiophene-2-sulfonamide], 167 nM.
Regarding `O=C(Nc1ncc(Br)s1)NS(=O)(=O)c1csc2c(Cl)cccc12` [Example 18, N-[(5-Bromo-1,3-thiazol-2-yl)carbamoyl]-7-chloro-1-benzothiophene-3-sulfonamide], the half-maximal inhibitory concentration (IC50) is 208 nM.
With `O=C(Nc1ncc(Br)s1)NS(=O)(=O)c1cc2cccc(Cl)c2s1` [Example 19, N-[(5-Bromo-1,3-thiazol-2-yl)carbamoyl]-7-chloro-1-benzothiophene-2-sulfonamide] the figure was 268 nM; with `O=C(Nc1ncc(Br)s1)NS(=O)(=O)c1cc2ccccc2[nH]1` [Example 20, N-[(5-Bromo-1,3-thiazol-2-yl)carbamoyl]-1H-indole-2-sulfonamide], 134 nM.
With `Cc1noc(C)c1-c1cccc2cc(S(=O)(=O)NC(=O)Nc3ncc(Br)s3)sc12` [Example 21, N-[(5-Bromo-1,3-thiazol-2-yl)carbamoyl]-7-(3,5-dimethylisoxazol-4-yl)-1-benzothiophene-2-sulfonamide] the figure was 447 nM; with `O=C(Nc1ncc(Br)s1)NS(=O)(=O)c1cc2cccc(-c3ccncc3)c2s1` [Example 22, N-[(5-Bromo-1,3-thiazol-2-yl)carbamoyl]-7-pyridin-4-yl-1-benzothiophene-2-sulfonamide], 440 nM; with `Cn1cc(S(=O)(=O)NC(=O)Nc2ncc(Br)s2)c2ccccc21` [Example 23, N-[(5-Bromo-1,3-thiazol-2-yl)carbamoyl]-1-methyl-1H-indole-3-sulfonamide], 385 nM.
With `Cn1cc(S(=O)(=O)NC(=O)Nc2ncc(Br)s2)c2cc(OCc3ccccc3)ccc21` [Example 24, 5-(Benzyloxy)-N-[(5-bromo-1,3-thiazol-2-yl)carbamoyl]-1-methyl-1H-indole-3-sulfonamide] the figure was 683 nM.
Take `COC(=O)c1ccc2c(c1)c(S(=O)(=O)NC(=O)Nc1ncc(Br)s1)cn2C` [Example 25, Methyl 3-({[(5-bromo-1,3-thiazol-2-yl)carbamoyl]amino}sulfonyl)-1-methyl-1H-indole-5-carboxylate]: the IC50 amounted to 731 nM.
With `Cn1cc(S(=O)(=O)NC(=O)Nc2ncc(Br)s2)c2cc(F)ccc21` [Example 26, N-[(5-Bromo-1,3-thiazol-2-yl)carbamoyl]-5-fluoro-1-methyl-1H-indole-3-sulfonamide] the figure was 341 nM; with `COC(=O)c1ccc2c(S(=O)(=O)NC(=O)Nc3ncc(Br)s3)cn(C)c2c1` [Example 27, Methyl 3-({[(5-bromo-1,3-thiazol-2-yl)carbamoyl]amino}sulfonyl)-1-methyl-1H-indole-6-carboxylate], 450 nM.
Regarding `Cn1cc(S(=O)(=O)NC(=O)Nc2ncc(Br)s2)c2ccc(OCc3ccccc3)cc21` [Example 28, 6-(Benzyloxy)-N-[(5-bromo-1,3-thiazol-2-yl)carbamoyl]-1-methyl-1H-indole-3-sulfonamide], the IC50 amounted to 363 nM.
With `Cn1cc(S(=O)(=O)NC(=O)Nc2ncc(Br)s2)c2ccc(C#N)cc21` [Example 29, N-[(5-Bromo-1,3-thiazol-2-yl)carbamoyl]-6-cyano-1-methyl-1H-indole-3-sulfonamide] the figure was 740 nM.

(Values after US7973051B2 (Hoffman-La Roche Inc., priority 2007, dated 2011).)
